Key:
[1] = logP by HPLC on reversed phase columns (EEC directive 79/831 Annex V.A8); format: physicochemical; conditions: for chromatographic logP: reversed phase HPLC columns
Procedure: Measurement of logP values was performed according EEC directive 79/831 Annex V.A8 by HPLC (High Performance Liquid Chromatography) on reversed phase columns with the following methods:
^[a] measurement of LC-MS was done at pH 2.7 with 0.1% formic acid in water and with acetonitrile (contains 0.1% formic acid) as eluent with a linear gradient from 10% acetonitrile to 95% acetonitrile. […]

Phytophthora infestans = format: in vivo; conditions: tomato plants, preventive spray, 500 ppm of active ingredient, evaluated 7 days after inoculation; 0% = untreated control, 100% = no disease
Plasmopara viticola = assay: Plasmopara test (grapevines)/preventive; format: in vivo; conditions: preventive spray, 100 ppm of active ingredient, evaluated 6 days after inoculation, 0% = untreated control, 100% = no disease
Procedure: Plasmopara Test (Grapevines)/Preventive • Solvent: 24.5 parts by weight of acetone • 24.5 parts by weight of dimethylacetamide • Emulsifier: 1 part by weight of alkylaryl polyglycol ether
To produce a suitable preparation of active compound, 1 part by weight of active compound is mixed with the stated amounts of solvent and emulsifier, and the concentrate is diluted with water to the desired concentration. To test for preventive activity, young plants are sprayed with the preparation of active compound at the stated rate of application. After the spray coating has dried on, the plants are inoculated with an aqueous spore suspension of Plasmopara viticola and then remain for 1 day in an incubation cabinet at approximately 20° C. and a relative atmospheric humidity of 100%. The plant is subsequently placed for 4 days in a greenhouse at approximately 21° C. and a relative atmospheric humidity of approximately 90%. The plants are then misted and placed for 1 day in an incubation cabinet. The test is evaluated 6 days after the inoculation. 0% means an efficacy which corresponds to that of the untreated control, while an efficacy of 100% means that no disease is observed.

[2] = method [a]: LC-MS at pH 2.7, 0.1% formic acid in water / acetonitrile, gradient 10% to 95% acetonitrile
[3] = pH 2.7, method [a]: LC-MS at pH 2.7, 0.1% formic acid in water / acetonitrile, gradient 10% to 95% acetonitrile
[4] = pH 2.7, value in preparation example text, method not given

Row | Structure (SMILES) | LogP [1, 2] | also measured
1 | CC(C)C(C)NC(=C(C#N)C(=O)C1CCC1)c1ccccc1Br (stereo not shown) [Example 22] | 4.64^[a] | 
2 | CC(NC(=C(C#N)C(=O)C1CCCC1)c1ccccc1Br)C1CC1 (stereo not shown) [Example 29] | 4.60^[a] | 
3 | CC(C)C(C)NC(=C(C#N)C(=O)CC1CC1)c1ccccc1Br (stereo not shown) [Example 16] | 4.34^[a] | Efficacy in % (Phytophthora infestans): 95%
4 | CCCC(=NOC)C(C#N)=C(NC(C)C(C)C)c1ccccc1Cl (stereo not shown) [Example 35, 2-{(2-chlorophenyl)[(3-methylbutan-2-yl)amino]methylene}-3-(methoxyimino)hexanenitrile] |  | chromatographic logP [1, 3]: 5.34; chromatographic logP [1, 4]: 5.34
5 | CCCC(=O)C(C#N)=C(NC(C)C(C)C)c1ccccc1Br (stereo not shown) [Example 17] | 4.40^[a] | Efficacy in % (Phytophthora infestans): 100%; Efficacy in % (Plasmopara viticola): 93%
6 | CC(NC(=C(C#N)C(=O)c1ccco1)c1ccccc1Br)C1CC1 (stereo not shown) [Example 10] | 3.50^[a] | 
7 | CC(NC(=C(C#N)C(=O)C1CCC1)c1ccccc1Br)C1CC1 (stereo not shown) [Example 11] | 4.20^[a] | 
8 | CC(C)C(C)NC(=C(C#N)C(=O)C1CCCCO1)c1ccccc1Br (mixture of isomers) [Example 26] | 3.80^[a] | 
9 | CCC(=O)C(C#N)=C(NC(C)C1CC1)c1ccccc1Br (stereo not shown) [Example 28] | 3.60^[a] | 
10 | CCCC(=NC#N)C(C#N)=C(N[C@@H](C)C(C)C)c1ccccc1Cl [Example 36] | 3.85^[a] | 
11 | CC(NC(=C(C#N)C(=O)C1CC1)c1ccccc1Br)C1CC1 (stereo not shown) [Example 20] | 3.90^[a] | 
12 | COCCC(=O)C(C#N)=C(NC(C)C1CC1)c1ccccc1Br (stereo not shown) [Example 3] | 3.20^[a] | 
13 | COCC(=O)C(C#N)=C(NC(C)C1CC1)c1ccccc1Br (stereo not shown) [Example 5] | 3.00^[a] | Efficacy in % (Phytophthora infestans): 93%
14 | CCCC(=O)C(C#N)=C(NC(C)C(C)C)c1ccccc1Cl (stereo not shown) [Example 13, 2-{(2-chlorophenyl)[(3-methylbutan-2-yl)amino]methylene}-3-oxohexanenitrile] |  | chromatographic logP [1, 3]: 4.44; chromatographic logP [1, 4]: 4.44
15 | CC(C)C(C)NC(=C(C#N)C(=O)C1CC1)c1ccccc1Br (stereo not shown) [Example 8] | 4.21^[a] | 
16 | COCCC(=O)C(C#N)=C(NC(C)C(C)C)c1ccccc1Cl (stereo not shown) [Example 27] | 3.55^[a] | 
17 | CC(C)C(C)NC(=C(C#N)C(=O)C1CC1)c1ccccc1Cl (stereo not shown) [Example 31] | 4.18^[a] | 
18 | CC(NC(=C(C#N)C(=O)CCl)c1ccccc1Br)C1CC1 (stereo not shown) [Example 7] | 3.50^[a] | 
19 | CC(C)C(C)NC(=CC#N)c1ccccc1Cl (stereo not shown) [3-(2-chlorophenyl)-3-[(3-methylbutan-2-yl)amino]acrylonitrile] |  | chromatographic logP [1, 4]: 3.27

Row | Structure (SMILES) | LogP [1, 2] | also measured
20 | N#CC=C(Cl)c1ccccc1Cl [3-chloro-3-(2-chlorophenyl)acrylonitrile] |  | chromatographic logP [1, 4]: 3.02; LogP ([1]; value in preparation example text, method not given): 3.23
21 | CNCC(=O)C(C#N)=C(NC(C)C(C)C)c1ccccc1Cl (stereo not shown) [Example 21] | 1.89^[a] | 
22 | CC(NC(=C(C#N)C(=O)CC1CC1)c1ccccc1Br)C1CC1 (stereo not shown) [Example 24] | 4.06^[a] | Efficacy in % (Phytophthora infestans): 85%
23 | CC(C)C(C)NC(=C(C#N)C(=O)C1CCOC1)c1ccccc1Br (mixture of isomers) [Example 1] | 3.60^[a] | 
24 | CC(NC(=C(C#N)C(=O)Cc1ccccc1)c1ccccc1Br)C1CC1 (stereo not shown) [Example 25] | 4.20^[a] | 
25 | CCCCC(=O)C(C#N)=C(NC(C)C(C)C)c1ccccc1Cl (stereo not shown) [Example 14] | 4.81^[a] | 
26 | CC(C)C(C)NC(=C(C#N)C(=O)C1CCCC1)c1ccccc1Br (stereo not shown) [Example 4] | 5.05^[a] | 
27 | CCC(=O)C(C#N)=C(NC(C)C(C)C)c1ccccc1Br (stereo not shown) [Example 9] | 4.04^[a] | 
28 | CC(C)C(C)NC(=C(C#N)C(=O)c1ccco1)c1ccccc1Cl (stereo not shown) [Example 6] | 3.87^[a] | 
29 | CC(NC(=C(C#N)C(=O)C1CCOC1)c1ccccc1Br)C1CC1 (mixture of isomers) [Example 30] | 3.25^[a] | 
30 | COCC(=O)C(C#N)=C(NC(C)C(C)C)c1ccccc1Br (stereo not shown) [Example 19] | 3.27^[a] | Efficacy in % (Phytophthora infestans): 95%; Efficacy in % (Plasmopara viticola): 74%
31 | CCCC(=O)C(C#N)=C(N[C@@H](C)C1CC1)c1ccccc1Br [Example 34] | 4.10^[a] | Efficacy in % (Phytophthora infestans): 93%
32 | COCC(=O)C(C#N)=C(NC(C)C(C)C)c1ccccc1Cl (stereo not shown) [Example 23] | 3.21^[a] | 
33 | CCCCC(=O)C(C#N)=C(NC(C)C1CC1)c1ccccc1Br (stereo not shown) [Example 15] | 4.40^[a] | 
34 | CC(C)C(C)NC(=C(C#N)C(=O)CCl)c1ccccc1Cl (stereo not shown) [Example 18] | 3.78^[a] | 
35 | CCCCC(=O)C(C#N)=C(NC(C)C(C)C)c1ccccc1Br (stereo not shown) [Example 12] | 4.85^[a] | 
36 | C[C@H](NC(=C(C#N)C(=O)C1CCCCO1)c1ccccc1Br)C1CC1 (stereo partly shown) [Example 32] | 3.50^[a] | 
37 | CC(C)C(C)NC(=C(C#N)C(=O)CC1CC1)c1ccccc1Cl (stereo not shown) [Example 2] | 4.27^[a] | 
38 | CC(C)CC(=O)C(C#N)=C(N[C@@H](C)C(C)C)c1ccccc1Cl [Example 33] | 4.73^[a] | 
